In patent US20260115216A1, “NUCLEIC ACID PRECURSOR” (priority 2022, published 2026):
Where two headings read alike, the source gives them in different places.

Experiments:
nematodes [1] = assay: ATP level in model organism (nematode); type: in vivo; details: nematodes on NGM plate with 100 μM ATP prodrug, seventh day of cultivation
Experimental: The culture of the nematodes and the addition of the ATP prodrug to the nematodes were conducted under the same conditions as those in the survival analysis. On the seventh day of cultivation, five nematodes were collected for each condition, totaling twenty-five nematodes, and were transferred to a 24-well plate containing PBS, followed by conducting ultrasonic disruption while kept on ice for one minute. Then, the crushed liquid was collected into a microtube, and after centrifugation (15,000 rpm, 30 minutes, 4° C.), the supernatant was collected. Amount of the ATP in the supernatant was quantified using the ATP measurement kit (Dojin Chemical), and the amount of the ATP per nematode was calculated.

Human fibroblasts (NHDF) = assay: Effect on intracellular ATP concentration using normal cells (Test Example 3); type: cell-based; details: 200 μM ATP prodrug, one day, ATP per cell
Experimental: Human fibroblasts (NHDF) (Takara Bio) were seeded at 5000 cells per well in DMEM low glucose, 10% FBS, and 1% penicillin/streptomycin, and, after 3 hours, a solution of the ATP prodrug prepared in Example 1 in DMSO at varying concentrations was added to the wells. One day later, the amount of DNA was measured using picogreen, and converted to cell count from a calibration curve separately created. The ATP level was quantified using the ATP measurement kit (Dojin Chemical), and the ATP level per cell was calculated.

normal pig liver cells = assay: Intracellular ATP level in primary liver cells (Test Example 6); type: cell-based; details: varying concentrations, 24 hours
Experimental: In addition to this study, normal pig liver cells were seeded at 5000 cells per well in the liver cell differentiation environment (Hepatp-STIM, 1 μg/100 mL EGF, 1% penicillin/streptomycin), and after 3 hours, a solution of the ATP prodrug in DMSO at varying concentrations was added to the wells. The DNA amount was measured using picogreen 24 hours later. The ATP level was quantified using the ATP measurement kit (Dojin Chemical), and the ATP level was provided.

MCF7 cells = assay: Effect of ATP analogs on intracellular ATP concentration in MCF7 cells (Test Example 2); type: cell-based, human; details: MCF7, 100 μM, one day and two days, normalized to DNA, compared with adenosine, AMP
Experimental: Adenosine, AMP, ATP, and the ATP prodrug were added to the culture medium of MCF7 cells (5000 cells/well) at a concentration of 100 μM, and, one day and two days later, ATP was measured, followed by normalizing the results to the DNA amounts.

[2] = system: Human liver cancer cells (HepG2); assay: Intracellular ATP level in liver cancer cells (Test Example 6); type: cell-based; details: HepG2 (cultured cells), varying concentrations, 24 hours
Experimental: Human liver cancer cells (HepG2) were seeded at 5000 cells per well in DMEM with 10% FBS and 1% penicillin/streptomycin, and after 3 hours, a solution of the ATP prodrug prepared in Example 1 in DMSO at varying concentrations was added to the wells. After 24 hours, the amount of DNA was measured using picogreen, and converted to cell count based on a calibration curve separately created. The ATP level was quantified using the ATP measurement kit (Dojin Chemical), resulting in the ATP level per cell.

HDF derived from human = assay: Oxidative stress load (hydrogen peroxide) on aged cells, cell number by WST-8 (Test Example 4 B); type: cell-based; details: HDF from person, 75 μM ATP prodrug 24 hours, then 200 μM hydrogen peroxide 6 hours
Experimental: (§1) Human Dermal Fibroblasts (HDF) derived from human (Toyobo) were seeded at 5000 cells/well in DMEM low glucose, 10% FBS, and 1% penicillin/streptomycin, and three hours later, the ATP prodrug dissolved in DMSO was added at either 0 or 50 μM. (A) The sample was incubated for 24 hours. The amount of DNA was measured using picogreen, and converted to cell count from a calibration curve separately created. The ATP level was quantified using the ATP measurement kit (Dojin Chemical), and the ATP level per cell was calculated. (B) 75 μM of the ATP prodrug was added to the HDF derived from human, and the medium was replaced with serum-free medium comprising 200 μM of hydrogen peroxide after 24 hours, followed by incubating the mixture for 6 hours. After 6 hours, the cells were washed, and the cell numbers were compared using the WST-8 kit.

[3] = system: AMP-activated protein kinase (AMPK); assay: Intracellular ATP levels using AMPK inhibitor (Test Example 7); details: normal human dermal fibroblasts, ATP prodrug 100 μM, 24 hours
[4] = system: MCF7 (human breast cancer cells); assay: Effect of ATP prodrug on intracellular ATP concentration in MCF7 cells (Test Example 1); type: cell-based; details: MCF7, 100 μM ATP prodrug, after 3 days, ATP per cell
Experimental: MCF7 (human breast cancer cells) (RIKEN BRC) were seeded at 5000 cells per well in DMEM low glucose, 10% FBS, and 1% penicillin/streptomycin, and, after 3 hours, solutions of the ATP prodrug prepared in Example 1 in DMSO at varying concentrations were added to those wells. Three days later, the amounts of DNA were measured using picogreen, and converted to cell counts from a calibration curve separately created. The amount of ATP was quantified using the ATP measurement kit (Dojin Chemical), and the amount of ATP per cell was calculated.

[5] = system: Human Dermal Fibroblasts (HDF) derived from human; assay: Intracellular ATP level in young and aged human dermal fibroblasts (Test Example 4 A); type: cell-based; details: 50 μM, 24 hours
Experimental: as §1

[6] = system: NHDF (normal human dermal fibroblasts); assay: Cytotoxicity by LDH release (Test Example 5); type: cell-based; details: 24 hours
Experimental: NHDF (normal human dermal fibroblasts) were seeded at 5000 cells per well in DMEM/F12 with 10% FBS and 1% penicillin/streptomycin, and after 3 hours, a solution of the ATP prodrug prepared in Example 1 in DMSO at varying concentrations was added to the wells. After 24 hours, the release of the cytotoxicity marker, lactate dehydrogenase (LDH), was quantified using the LDH assay kit (Dojin Chemical), and the cytotoxicity was calculated.

nematodes [7] = assay: Lifespan extension in model organism (nematode), survival analysis (Test Examples 8 and 10); type: in vivo; details: for average lifespan extended compared to the control: 1% DMSO
Experimental: The ATP prodrug prepared in Example 1, dissolved in DMSO, was added to the liquid Nematode Growth Medium (NGM) that had been sterilized and maintained at 60° C. at a final concentration of 100 μM, so as to prepare an ATP prodrug-containing NGM plate. At this time, the final concentration of DMSO in the NGM was adjusted to 1%. […] Onto the surface of the NGM plate used immediately before survival analysis, the bacterium Escherichia coli strain OP50 stirred in M9 buffer was applied as food for the nematodes.
Thirty-five nematodes were transferred to the NGM plate, after performing age synchronization. The nematodes were transferred to a new NGM plate every day from the first day of adulthood (the third day) to the seventh day, and every two days from the eighth day until the nematodes died. At the same time, the numbers of living nematodes and dead nematodes were recorded. Survival status of the nematodes was determined by whether they reacted when touched. Average lifespan was calculated from the results obtained, and the average lifespans were compared to determine the lifespan extension rate of the nematodes. This experiment was conducted four times to confirm the reproducibility (In cases of both with and without the addition of proATP, n=114).
ATP prodrug-neo dissolved in DMSO, was added to the liquid Nematode Growth Medium (NGM) that had been sterilized and maintained at 60° C. at a final concentration of 200 µM, so as to prepare an ATP prodrug-neo-containing NGM plate. At this time, the final concentration of DMSO in the NGM was adjusted to 1%. […]
Thirty-five nematodes were transferred to the NGM plate, after performing age synchronization. […] At the same time, the numbers of living nematodes and dead nematodes were recorded. Survival status of the nematode was determined by whether they reacted when touched. Average lifespan was calculated from the results obtained, and the average lifespans were compared to determine the lifespan extension rate of the nematodes. […]

[8] = system: HDF75 (human dermal fibroblasts derived from a person); assay: Effect of ATP prodrug-neo on intracellular ATP concentration (Test Example 9); type: cell-based; details: HDF75, varying concentrations, 24 hours, ATP per cell
Experimental: HDF75 (human dermal fibroblasts derived from a person) (Cell Applications, Inc.) were seeded at 5000 cells per well in the human dermal fibroblast growth medium, and after 3 hours, a solution of the ATP prodrug-neo prepared in Example 2 in DMSO at varying concentrations was added to the well. After 24 hours, the amount of DNA was measured using the picogreen and converted to cell count from a calibration curve separately created. The amount of ATP was quantified using the ATP measurement kit (Dojin Chemical), and the amount of ATP per cell was calculated.

[9] = cited from earlier work
nematodes [10] = details: nematode, literature values of other drugs; cited from earlier work

With `CCC(CC)COC(=O)[C@H](C)N[P@](=O)(OC[C@H]1O[C@@H](n2cnc3c(N)ncnc32)[C@H](O)[C@@H]1O)Oc1ccccc1` [ATP prodrug, (S)-2-Ethylbutyl 2-(((S)-(((2R,3S,4R,5R)-5-(6-amino-9H-purine-9-yl)-3,4-dihydroxy-tetrahydrofuran-2-yl)methoxy) (phenoxy)phosphoryl)amino)propanoate] the “amount of ATP per nematode higher than control” value (nematodes [1]) was “approximately 23%”, the “intracellular ATP level compared to the control (0 μM)” value (Human fibroblasts (NHDF)) was 1.7 times and the “intracellular ATP levels” value (normal pig liver cells) was “increased”. For the same compound, the “intracellular ATP level” value (MCF7 cells) was “increased”, the “intracellular ATP levels” value [2] was “increased” and the “cell number under oxidative stress” value (HDF derived from human) was “suppresses the decrease in cell number”. The “AMPK activation (suggested from inhibitor experiment)” value [3] was “activates the AMPK”, the “intracellular ATP amount compared to the control level” value [4] was “approximately 2.5 times” and the “intracellular ATP levels” value [5] was “increased”. The “amount of LDH release” value ([6]; 256 μM) was “remains low”, the cytotoxicity to cells ([6]; LDH assay) was “low cytotoxicity” and the “Lifespan Extension Rate” value (nematodes [7]; nematode, the present invention) was 133%. The “average lifespan extended compared to the control” value (nematodes [7]; nematodes on NGM plate with 100 μM ATP prodrug) was “approximately 33%”.
For `C[C@H](NP(=O)(N[C@@H](C)C(=O)OCC(C)(C)C)OC[C@H]1O[C@@H](n2cnc3c(N)ncnc32)C(O)C1O)C(=O)OCC(C)(C)C` (stereo partly shown) [ATP prodrug-neo], the “intracellular ATP levels” value [8] was “increased” and the “average lifespan extended compared to the control” value (nematodes [7]; nematodes on NGM plate with 200 µM ATP prodrug-neo) was “approximately 26%”.
In the case of `Nc1ncnc2c1ncn2[C@@H]1O[C@H](COP(=O)(O)OP(=O)(O)OP(=O)(O)O)[C@@H](O)[C@H]1O` [ATP, adenosine triphosphate], the half-life in blood [9] is listed as “about 10 seconds”.
In the case of `CN(C)C(=N)N=C(N)N` [Metformin], the “Lifespan Extension Rate” value (nematodes [10]) is given as 127%.
In the case of `NC(=O)c1cccnc1` [Nicotinamide], the “Lifespan Extension Rate” value (nematodes [10]) is given as 116%.
For `Oc1ccc(C=Cc2cc(O)cc(O)c2)cc1` [Resveratrol], the “Lifespan Extension Rate” value (nematodes [10]) is listed as 110%.
